Measurements as given in a compilation of properties of binary mixtures (doi:10.1021/je990207b).

Assay: excess molar enthalpy (molar enthalpy of mixing); xn = mol fraction of the nth substance listed
Settings: 298.15 K, 100 kPa

CC(=O)O + CC#N
Settings | excess molar enthalpy [kcal/mol]
x2 = 0.0927 | 0.023
x2 = 0.1409 | 0.0359
x2 = 0.2787 | 0.0588
x2 = 0.381 | 0.0696
x2 = 0.571 | 0.0679
x2 = 0.7416 | 0.0474
x2 = 0.809 | 0.0379
x2 = 0.8722 | 0.0268
x2 = 0.915 | 0.019

CCCCC(=O)O + CC#N
Settings | excess molar enthalpy [kcal/mol]
x2 = 0.1197 | 0.0643
x2 = 0.1899 | 0.1
x2 = 0.2311 | 0.12
x2 = 0.2782 | 0.139
x2 = 0.4131 | 0.183
x2 = 0.4825 | 0.199
x2 = 0.5404 | 0.205
x2 = 0.6211 | 0.202
x2 = 0.637 | 0.2
x2 = 0.6655 | 0.195
x2 = 0.7138 | 0.182
x2 = 0.7441 | 0.173
x2 = 0.8076 | 0.14
x2 = 0.8487 | 0.115
x2 = 0.9029 | 0.0725
x2 = 0.9603 | 0.0285

CCCC(=O)O + CC#N
Settings | excess molar enthalpy [kcal/mol]
x2 = 0.089 | 0.0382
x2 = 0.1448 | 0.0632
x2 = 0.1884 | 0.0809
x2 = 0.2668 | 0.108
x2 = 0.4626 | 0.15
x2 = 0.523 | 0.155
x2 = 0.5889 | 0.152
x2 = 0.6417 | 0.147
x2 = 0.6605 | 0.143
x2 = 0.686 | 0.138
x2 = 0.7141 | 0.131
x2 = 0.7884 | 0.105
x2 = 0.8201 | 0.0917
x2 = 0.8728 | 0.0713
x2 = 0.9067 | 0.0519
x2 = 0.9377 | 0.031

CC(C)C(=O)O + CC#N
Settings | excess molar enthalpy [kcal/mol]
x2 = 0.187 | 0.116
x2 = 0.2347 | 0.141
x2 = 0.2938 | 0.172
x2 = 0.3508 | 0.192
x2 = 0.3982 | 0.206
x2 = 0.4547 | 0.22
x2 = 0.5013 | 0.222
x2 = 0.5479 | 0.221
x2 = 0.6046 | 0.214
x2 = 0.6531 | 0.201
x2 = 0.6827 | 0.189
x2 = 0.7273 | 0.172
x2 = 0.8013 | 0.138
x2 = 0.9158 | 0.0654

CC(C)CC(=O)O + CC#N
Settings | excess molar enthalpy [kcal/mol]
x2 = 0.0895 | 0.0454
x2 = 0.1287 | 0.0645
x2 = 0.1972 | 0.0978
x2 = 0.3371 | 0.151
x2 = 0.4026 | 0.175
x2 = 0.52 | 0.205
x2 = 0.5902 | 0.21
x2 = 0.6283 | 0.207
x2 = 0.7177 | 0.189
x2 = 0.7835 | 0.161
x2 = 0.8207 | 0.136
x2 = 0.8529 | 0.12
x2 = 0.8744 | 0.104
x2 = 0.9379 | 0.0492

CCC(=O)O + CC#N
Settings | excess molar enthalpy [kcal/mol]
x2 = 0.156 | 0.0696
x2 = 0.2134 | 0.0896
x2 = 0.278 | 0.11
x2 = 0.3407 | 0.127
x2 = 0.399 | 0.139
x2 = 0.4626 | 0.148
x2 = 0.5057 | 0.151
x2 = 0.5993 | 0.145
x2 = 0.6517 | 0.136
x2 = 0.7248 | 0.118
x2 = 0.8046 | 0.0932
